According to US5677281A, “Use of peptide derivatives for the preparation of medicaments inhibiting endopeptidases 24.15 and 24.16” (Commissariat a l'Energie Atomique, priority 1992, dated 1997):
Entries after “also recorded” stand apart in the source; their conditions may differ. Like-named read-outs stand apart in the source and are kept apart here. Residues, ends and D or L forms follow the SMILES beside them.

How the values were obtained:
[1] = molecular target: endopeptidase 24.16 (Homo sapiens, UniProt Q9BYT8); conditions: Dauch et al, cited from earlier work
[2] = molecular target: endopeptidase 24.15 (Homo sapiens, UniProt P52888); conditions: cited from earlier work
[3] = test system: leucine aminopeptidase; experiment: Effect on leucine aminopeptidase, substrate Leu-7AMC, HPLC (Example 13); type: biochemical; conditions: 1 μmole/l of inhibitor, 15 min, 37° C.
Experimental: After incubating for 15 min, the reaction medium is analyzed by HPLC.

[4] = molecular target: T1, endopeptidase 24.15 (Rattus norvegicus, UniProt P24155); experiment: Inhibition of endopeptidase 24.15, neurotensin as substrate, HPLC (Example 11); type: biochemical; conditions: 37° C.
Experimental: This example uses the same operating procedure as in example 10, but using neurotensin as the endopeptidase 24.15 substrate.
(§1) After incubating for 42 min, acidification and analysis takes place of the liquid phase by HPLC in reverse phase using linear gradients of the trifluoroacetic acid, triethyl amine and acetonitrile system, as in example 3.

[5] = molecular target: T1, endopeptidase 24.15; experiment: Inhibition of endopeptidase 24.15, substrate Bz-Gly-Ala-Ala-Phe-pAB, HPLC (Example 10); type: biochemical; conditions: 37° C.
Experimental: Following incubation, acidification and HPLC analysis on an inverse phase take place using a linear gradient elution system of 63 min of 0.1% trifluoroacetic acid and 0.05% triethyl amine in acetonitrile between 9/1 (v/v) and 5.5/4.5 (v/v), as described by Checler et al in Biochimie 70, pp.75-82, 1988.

[6] = molecular target: T2, endopeptidase 24.16 (Rattus norvegicus, UniProt P42676); experiment: Inhibition of endopeptidase 24.16, neurotensin, Tris-HCl 25 mM pH 7, 25° C. (Example 16); type: biochemical; conditions: read-out: Endopeptidases 24.16 Ki
Experimental: (§2) After incubation, it is interrupted by acidification and the solution analyzed by high performance liquid chromatography (HPLC) using an elution system constituted by a linear gradient of 42 min of 0.1% trifluoroacetic acid and 0.05% triethyl amine in acetonitrile, ranging between 9/1 and 3/1, as described by Checler et al, Biochimie 70, pp.75-82, 1988.
As in example 9, this example studies the inhibiting effect of the compounds of examples 1 to 7 on endopeptidase 24.16 using neurotensin as the substrate and operating in the same way, except that use is made of a Tris-HCl, 25 mM, pH 7 buffer and a temperature of 25° C.

[7] = molecular target: angiotensin conversion enzyme (Homo sapiens, UniProt P12821); experiment: Effect on angiotensin conversion enzyme, substrate Hippuryl-His-Leu, HPLC (Example 14); type: biochemical; conditions: 1 μmole/l of inhibitor, 15 min, 37° C.
[8] = molecular target: T1, endopeptidase 24.15; experiment: Inhibition of endopeptidase 24.15, neurotensin, Tris-HCl 25 mM pH 7, 25° C. (Example 17); type: biochemical; conditions: read-out: Endopeptidases 24.15 Ki
Experimental: as §1
As in example 11, this example studies the inhibiting effect of the compounds of examples 1 to 7 on endopeptidase 24.15 using neurotensin as the substrate and working under the same conditions, except that use is made of a Tris-HCl 25 mM, pH 7 buffer and a temperature of 25° C.

[9] = test system: endopeptidase 24.11; experiment: Effect on endopeptidase 24.11, hydrolysis of neurotensin (Example 15); type: biochemical
Experimental: The hydrolysis of 2 nM of neurotensin is followed by 9 μg of endopeptidase 24.11 under the conditions described in example 3.

[10] = molecular target: T2, endopeptidase 24.16; experiment: Inhibition of endopeptidase 24.16, neurotensin as substrate, HPLC (Example 9); type: biochemical
Experimental: as §2
The results obtained are given in FIGS. 2 to 7, which show chromatograms obtained by measuring the optical density at 230 nm as a function of time (min).

[11] = molecular target: T2, endopeptidase 24.16; experiment: Inhibition of endopeptidase 24.16, fluorimetry with substrate Mcc-Pro-Leu-Gly-Pro-DLys-Dnp (Example 8); type: biochemical; conditions: 1 h, 37° C., pH 7.5, read-out: inhibition constant Ki
Experimental: After incubating for 1 h, the solutions are analyzed by fluorimetry, as described by Dauch et al, Biochem. J., 280, pp.421-426, 1991a.

[12] = molecular target: T3, carboxypeptidase A (Bos taurus, UniProt P00730); experiment: Effect on carboxypeptidase A, substrate Hippuryl-Phe, HPLC (Example 12); type: biochemical; conditions: 1 μmole/l of inhibitor, 15 min, 37° C.
T3 sequence (P00730 111-419): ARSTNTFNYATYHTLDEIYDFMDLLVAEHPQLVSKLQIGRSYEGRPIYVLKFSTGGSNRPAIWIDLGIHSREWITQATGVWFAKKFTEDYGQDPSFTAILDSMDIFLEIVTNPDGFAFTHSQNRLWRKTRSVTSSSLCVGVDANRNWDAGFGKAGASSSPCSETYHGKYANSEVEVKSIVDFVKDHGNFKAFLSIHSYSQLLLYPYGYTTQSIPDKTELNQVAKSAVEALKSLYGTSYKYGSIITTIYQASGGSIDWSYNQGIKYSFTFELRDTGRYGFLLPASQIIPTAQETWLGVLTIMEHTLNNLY
Experimental: After 15 min incubation, the solution is analyzed by HPLC.

T2 sequence (P42676 38-704): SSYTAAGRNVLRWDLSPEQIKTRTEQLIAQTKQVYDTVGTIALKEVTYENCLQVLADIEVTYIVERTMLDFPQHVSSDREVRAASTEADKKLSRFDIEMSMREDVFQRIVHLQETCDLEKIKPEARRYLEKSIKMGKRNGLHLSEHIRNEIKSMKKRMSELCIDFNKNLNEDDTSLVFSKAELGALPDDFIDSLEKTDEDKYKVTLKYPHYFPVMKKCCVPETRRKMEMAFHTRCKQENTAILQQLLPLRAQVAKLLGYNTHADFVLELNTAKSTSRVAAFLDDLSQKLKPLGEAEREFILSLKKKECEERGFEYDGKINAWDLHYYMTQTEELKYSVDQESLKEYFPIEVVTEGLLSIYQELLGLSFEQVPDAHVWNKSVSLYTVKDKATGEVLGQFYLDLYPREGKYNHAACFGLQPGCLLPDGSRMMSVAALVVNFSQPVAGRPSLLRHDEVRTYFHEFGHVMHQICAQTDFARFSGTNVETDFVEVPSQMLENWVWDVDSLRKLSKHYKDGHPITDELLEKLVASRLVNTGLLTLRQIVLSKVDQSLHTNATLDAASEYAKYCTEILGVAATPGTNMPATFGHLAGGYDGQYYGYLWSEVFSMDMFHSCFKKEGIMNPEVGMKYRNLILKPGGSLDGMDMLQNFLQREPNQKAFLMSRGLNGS
T1 sequence (P24155 whole entry): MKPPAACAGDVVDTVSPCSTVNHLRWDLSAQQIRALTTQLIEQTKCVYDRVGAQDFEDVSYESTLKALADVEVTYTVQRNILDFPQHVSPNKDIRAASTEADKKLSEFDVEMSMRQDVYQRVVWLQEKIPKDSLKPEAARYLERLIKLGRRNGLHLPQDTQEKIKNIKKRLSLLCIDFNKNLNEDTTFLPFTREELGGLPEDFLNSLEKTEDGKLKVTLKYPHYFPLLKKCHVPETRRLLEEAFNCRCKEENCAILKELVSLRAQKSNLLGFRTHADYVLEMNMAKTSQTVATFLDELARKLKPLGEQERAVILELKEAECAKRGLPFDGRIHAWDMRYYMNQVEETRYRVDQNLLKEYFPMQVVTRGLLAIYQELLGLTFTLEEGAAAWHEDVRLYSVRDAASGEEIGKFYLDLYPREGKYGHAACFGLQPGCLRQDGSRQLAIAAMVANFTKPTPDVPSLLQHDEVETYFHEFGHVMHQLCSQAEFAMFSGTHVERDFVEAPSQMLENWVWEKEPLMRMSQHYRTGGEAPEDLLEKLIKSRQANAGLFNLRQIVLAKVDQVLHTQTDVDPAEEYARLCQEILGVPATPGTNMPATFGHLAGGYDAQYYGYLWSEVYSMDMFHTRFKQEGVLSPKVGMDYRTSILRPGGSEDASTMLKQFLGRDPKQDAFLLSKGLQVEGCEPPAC
Sequence of endopeptidase 24.15 (Homo sapiens, UniProt P52888) (P52888 whole entry, species assumed): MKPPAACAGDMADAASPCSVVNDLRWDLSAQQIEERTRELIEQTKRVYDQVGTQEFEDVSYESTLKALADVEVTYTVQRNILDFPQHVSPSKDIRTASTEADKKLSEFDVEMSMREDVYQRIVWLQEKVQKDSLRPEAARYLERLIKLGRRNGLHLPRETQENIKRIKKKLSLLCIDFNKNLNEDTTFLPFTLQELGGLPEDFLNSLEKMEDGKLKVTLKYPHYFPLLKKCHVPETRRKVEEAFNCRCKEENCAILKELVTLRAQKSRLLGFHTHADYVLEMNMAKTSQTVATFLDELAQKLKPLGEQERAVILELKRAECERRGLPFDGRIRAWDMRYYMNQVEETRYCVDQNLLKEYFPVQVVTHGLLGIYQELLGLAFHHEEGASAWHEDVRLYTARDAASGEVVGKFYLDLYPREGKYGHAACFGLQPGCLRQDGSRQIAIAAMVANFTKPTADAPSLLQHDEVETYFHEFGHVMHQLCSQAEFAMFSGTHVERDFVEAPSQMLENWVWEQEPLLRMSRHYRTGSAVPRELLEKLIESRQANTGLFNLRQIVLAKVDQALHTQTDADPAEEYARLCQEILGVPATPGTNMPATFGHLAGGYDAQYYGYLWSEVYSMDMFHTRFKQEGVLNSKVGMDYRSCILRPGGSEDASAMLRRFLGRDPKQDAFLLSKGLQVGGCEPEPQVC
Sequence of angiotensin conversion enzyme (P12821 30-1306): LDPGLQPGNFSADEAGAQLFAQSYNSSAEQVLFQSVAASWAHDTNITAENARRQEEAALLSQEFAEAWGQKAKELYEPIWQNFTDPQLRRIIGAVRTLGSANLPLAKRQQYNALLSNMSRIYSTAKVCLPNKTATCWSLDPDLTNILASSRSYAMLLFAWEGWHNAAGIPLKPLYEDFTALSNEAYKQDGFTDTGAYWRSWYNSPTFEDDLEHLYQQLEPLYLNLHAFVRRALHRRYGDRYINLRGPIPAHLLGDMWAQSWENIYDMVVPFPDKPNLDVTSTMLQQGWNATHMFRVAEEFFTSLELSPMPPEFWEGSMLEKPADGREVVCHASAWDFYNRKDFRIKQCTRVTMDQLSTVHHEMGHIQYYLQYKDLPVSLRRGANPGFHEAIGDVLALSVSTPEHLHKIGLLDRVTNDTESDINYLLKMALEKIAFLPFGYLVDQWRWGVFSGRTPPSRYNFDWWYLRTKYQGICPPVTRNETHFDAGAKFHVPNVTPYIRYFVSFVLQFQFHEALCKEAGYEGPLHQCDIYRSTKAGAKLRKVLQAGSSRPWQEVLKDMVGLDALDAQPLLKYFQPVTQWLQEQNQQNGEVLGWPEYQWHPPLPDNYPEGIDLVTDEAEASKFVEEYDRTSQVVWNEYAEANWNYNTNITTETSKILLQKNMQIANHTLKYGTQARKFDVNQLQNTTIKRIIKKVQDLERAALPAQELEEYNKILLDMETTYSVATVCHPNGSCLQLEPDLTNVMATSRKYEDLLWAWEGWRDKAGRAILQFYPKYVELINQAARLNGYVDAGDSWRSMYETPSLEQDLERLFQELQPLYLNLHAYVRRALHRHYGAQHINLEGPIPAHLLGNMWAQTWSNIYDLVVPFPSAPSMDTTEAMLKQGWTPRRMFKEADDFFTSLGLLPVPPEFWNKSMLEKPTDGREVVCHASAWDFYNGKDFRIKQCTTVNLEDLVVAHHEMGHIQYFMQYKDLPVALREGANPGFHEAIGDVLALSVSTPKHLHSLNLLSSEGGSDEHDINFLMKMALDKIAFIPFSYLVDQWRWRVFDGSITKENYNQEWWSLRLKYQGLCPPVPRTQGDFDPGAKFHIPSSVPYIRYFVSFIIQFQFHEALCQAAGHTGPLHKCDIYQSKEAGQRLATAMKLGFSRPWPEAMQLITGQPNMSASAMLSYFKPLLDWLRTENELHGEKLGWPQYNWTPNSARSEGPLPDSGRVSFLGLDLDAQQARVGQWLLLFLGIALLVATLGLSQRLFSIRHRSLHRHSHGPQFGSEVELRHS
Sequence of endopeptidase 24.16 (Homo sapiens, UniProt Q9BYT8) (Q9BYT8 38-704): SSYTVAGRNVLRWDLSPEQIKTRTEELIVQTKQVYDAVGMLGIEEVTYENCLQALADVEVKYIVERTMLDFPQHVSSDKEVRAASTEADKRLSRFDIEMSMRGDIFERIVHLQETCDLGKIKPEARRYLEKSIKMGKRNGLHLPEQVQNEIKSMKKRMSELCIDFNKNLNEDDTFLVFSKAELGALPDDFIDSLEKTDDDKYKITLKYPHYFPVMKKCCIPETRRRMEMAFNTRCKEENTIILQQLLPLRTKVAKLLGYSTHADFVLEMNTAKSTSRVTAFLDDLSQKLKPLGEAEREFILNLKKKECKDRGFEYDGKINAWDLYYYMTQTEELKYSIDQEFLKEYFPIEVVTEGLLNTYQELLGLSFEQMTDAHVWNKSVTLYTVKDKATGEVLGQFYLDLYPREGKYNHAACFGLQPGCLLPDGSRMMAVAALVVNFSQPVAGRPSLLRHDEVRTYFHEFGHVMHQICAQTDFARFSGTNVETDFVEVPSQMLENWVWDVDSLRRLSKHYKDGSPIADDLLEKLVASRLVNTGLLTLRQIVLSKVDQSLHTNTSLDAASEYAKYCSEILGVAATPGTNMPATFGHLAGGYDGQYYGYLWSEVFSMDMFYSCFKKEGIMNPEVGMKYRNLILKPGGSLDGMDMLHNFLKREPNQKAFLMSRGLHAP

Q: What does the source list for `C[C@H](NC(=O)[C@H](C)NC(CCc1ccccc1)C(=O)O)C(=O)N[C@@H](Cc1ccc(O)cc1)C(=O)Nc1ccc(C(=O)O)cc1` (stereo partly drawn) [CPP-Ala-Ala-Tyr-pAB]?
A: Ki ([1]; Biochem. J. 280, 1991, read-out: inhibition constant, endopeptidase 24.16): 1000 nM; Ki ([2]; Orlowski et al, Biochemistry 27, 1988, read-out: inhibition constant, endopeptidase 24.15): 16 nM

Q: What does the source list for `CC[C@H](C)[C@H](NC(=O)[C@@H]1CCCN1)C(=O)O` [Pro-Ile] (H-Pro-Ile-OH)?
A: Ki ([1]; Eur. J. Biochem. 202, 1991b, read-out: Ki inhibition of endopeptidase 24.16): 90000 nM; inhibiting action on endopeptidase 24.15 ([2]; at a concentration as high as 5 mN): no inhibiting action

Q: With phosphodiepryl O3 as the compound, how does the leucine aminopeptidase inhibition [3] read?
A: The leucine aminopeptidase inhibition was “no inhibition; also recorded: no effect”.

Q: What about the IC50 [4] of the same compound?
A: The IC50 was 100 nM.

Q: What about the Ki ([4]; read-out: inhibition constant Ki) of the same compound?
A: Its Ki is 7.5 nM.

Q: What about the IC50 [5] of the same compound?
A: Its IC50 is 5 nM.

Q: What about the Ki [5] of the same compound?
A: The Ki was 5 nM.

Q: And the Ki [6]?
A: The Ki was 0.44 nM.

Q: What about the “inhibition of the angiotensin conversion enzyme” value [7] of the same compound?
A: The value was “no inhibition; also recorded: no effect”.

Q: What about the Ki [8] of the same compound?
A: Its Ki is 1.6 nM.

Q: And the “inhibition of endopeptidase 24.11” value [9]?
A: Its value is “no inhibition; also recorded: no effect”.

Q: And the “effectiveness compared with the Ki of the known inhibitor Pro-Ile” value ([10]; Ki 0.9 nM versus Pro-Ile 90 μM)?
A: Its value is 100,000 times.

Q: What about the Ki ([10]; substrate neurotensin, 37° C., pH 7.5) of the same compound?
A: The Ki was 0.9 nM.

Q: What about the Ki [11] of the same compound?
A: Its Ki is 0.3 nM.

Q: And the “carboxypeptidase A inhibition” value [12]?
A: Its value is “no carboxypeptidase A inhibition; also recorded: no effect”.
